Measured values reported in patent publication US20180201592A1, “2-AMINO-1,3,4-THIADIAZINE AND 2-AMINO-1,3,4-OXADIAZINE BASED ANTIFUNGAL AGENTS” (F2G Limited, priority 2015, published 2018).

Experiments:
Conditions in all cases: banded MIC grade
[1] = tested on: A. terreus 49; test: Minimum inhibitory concentration, YAG medium; type: cell-based, Aspergillus terreus
Procedure, shortened: (§1)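 MIC values (mg/L) were derived from well optical density at 485 nm. Plates with Aspergillus spores and doubling aqueous dilutions of compound (5 mg/mL DMSO stock) had been incubated at 35° C for 24 hrs.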

[2] = tested on: A. fumigatus 210; test: Minimum inhibitory concentration, RPMI medium; type: cell-based
Protocol: (§2) Between 1 and 5 mgs of compound were accurately weighed out into a sterile Eppendorf tube. The compound was dissolved in DMSO to give a solution containing 5 mg/mL. Tubes were stored at −20° C. until required.
(§3) On the day of testing thawed solutions were vortex mixed to ensure homogeneity. 30 μL of solution was removed and added to 570 μL of sterile water in a separate sterile Eppendorf. The thoroughly mixed solution was used to prepare a series of doubling dilutions in water, in a deep well plate. Thirteen replicate plates were prepared using a Minitrak by aspirating 20 μL from each well into eleven clear polystyrene 96 well plates.
(§4) Assays were also performed in RPMI medium (Roswell Park Memorial Media 1640). To perform MIC tests in this medium, dilutions of compounds are prepared in microtitre plates as described above. Fungal strains to be tested are grown and harvested in an identical manner to that described above, and each organism suspension was diluted in RPMI medium, typically containing 2% glucose and 0.135 M MOPS buffer (pH 7.0) to 0.5-2×10^4cfu/mL, rather than in YAG medium. 80 μL of an organism suspension was added to each well of the plate containing drug dilutions.
(§5) This produced MIC plates with a drug range 50-0.05 mg/L and organism inocula of 1-2×10^4 cfu/mL. All plates were incubated for 24-48 hrs at 35° C. Growth was assessed by monitoring the optical density at 485 nm for each well. The MIC of a compound is the lowest drug concentration that inhibits growth of an organism by >80% compared with a drug free control. The following organisms were tested: C. albicans, C. parapsilosis, C. tropicalis, C. glabrata, C. krusei, A. niger, A. fumigatus, A. terreus, A. flavus, A. terreus 49, and A. fumigatus 210.

[3] = tested on: A. fumigatus; test: Minimum inhibitory concentration, RPMI medium; type: cell-based
Protocol: as §2, §3, §4, §5

[4] = tested on: C. albicans; test: Minimum inhibitory concentration, RPMI medium; type: cell-based
Procedure, shortened: (§6)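 Thawed 5 mg/mL DMSO stocks are vortexed, diluted into sterile water and serially halved in water. The MIC test is then run in RPMI 1640 at 35° C for 24-48 hrs. Wells are read at OD 485 nm.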

[5] = tested on: A. terreus; test: Minimum inhibitory concentration, RPMI medium; type: cell-based
Procedure, shortened: as §6

[6] = tested on: C. tropicalis; test: Minimum inhibitory concentration, RPMI medium; type: cell-based
Procedure, shortened: as §6

[7] = tested on: C. glabrata; test: Minimum inhibitory concentration, RPMI medium; type: cell-based
Procedure, shortened: as §6

[8] = tested on: A. flavus; test: Minimum inhibitory concentration, RPMI medium; type: cell-based
Procedure, shortened: as §6

[9] = tested on: A. niger; test: Minimum inhibitory concentration, RPMI medium; type: cell-based
Procedure, shortened: as §6

[10] = tested on: C. parapsilosis; test: Minimum inhibitory concentration, RPMI medium; type: cell-based
Procedure, shortened: as §6

[11] = tested on: A. terreus 49; test: Minimum inhibitory concentration, RPMI medium; type: cell-based
Procedure, shortened: as §6

[12] = tested on: C. krusei; test: Minimum inhibitory concentration, RPMI medium; type: cell-based
Procedure, shortened: as §6

[13] = tested on: Aspergillus flavus; test: Minimum inhibitory concentration, YAG medium; type: cell-based
Procedure, shortened: as §1

[14] = tested on: Aspergillus niger; test: Minimum inhibitory concentration, YAG medium; type: cell-based
Procedure, shortened: as §1

[15] = tested on: Aspergillus terreus; test: Minimum inhibitory concentration, YAG medium; type: cell-based
Procedure, shortened: as §1

[16] = tested on: A. fumigatus 210; test: Minimum inhibitory concentration, YAG medium; type: cell-based, Aspergillus fumigatus
Procedure, shortened: (§7)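 MICs (mg/L) reflect >70% inhibition of OD485 growth versus untreated control after 24 hrs at 35° C in YAG medium, spore inoculum 1-2×10^4 cfu/mL, drug range 50-0.05 mg/L.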

[17] = tested on: Aspergillus fumigatus; test: Minimum inhibitory concentration, YAG medium; type: cell-based
Procedure, shortened: as §7

NC1=NN=C(CCCCOCc2cccc(Oc3ccccc3)c2)CS1
MIC grade, A. TERREUS 49, YAG media [1]: 1 (1: ≥5 mg/L)
MIC grade, A. FUMIGATUS 210, RPMI media [2]: 1 (1: ≥20 mg/L)
MIC grade, A. FUMIGATUS, RPMI media [3]: 1 (1: ≥20 mg/L)
MIC grade, C. ALBICANS, RPMI media [4]: 3 (3: 1-5 mg/L)
MIC grade, A. TERREUS, RPMI media [5]: 1 (1: ≥20 mg/L)
MIC grade, C. TROPICALIS, RPMI media [6]: 3 (3: 1-5 mg/L)
MIC grade, C. GLABRATA, RPMI media [7]: 1 (1: ≥20 mg/L)
MIC grade, A. FLAVUS, RPMI media [8]: 1 (1: ≥20 mg/L)
MIC grade, A. NIGER, RPMI media [9]: 1 (1: ≥20 mg/L)
MIC grade, C. PARAPSILOSIS, RPMI media [10]: 3 (3: 1-5 mg/L)
MIC grade, A. TERREUS 49, RPMI media [11]: 1 (1: ≥20 mg/L)
MIC grade, C. KRUSEI, RPMI media [12]: 3 (3: 1-5 mg/L)
MIC grade, A. FLAVUS, YAG media [13]: 2 (2: 1-5 mg/L)
MIC grade, A. NIGER, YAG media [14]: 2 (2: 1-5 mg/L)
MIC grade, A. TERREUS, YAG media [15]: 1 (1: ≥5 mg/L)
MIC grade, A. FUMIGATUS 210, YAG media [16]: 1 (1: ≥5 mg/L)
MIC grade, A. FUMIGATUS, YAG media [17]: 1 (1: ≥5 mg/L)

NC1=NN=C(CCCCOCc2cccc(C3CC3)c2)CS1
MIC grade, A. TERREUS 49, YAG media [1]: 3 (3: 0.2-1 mg/L)
MIC grade, A. FUMIGATUS 210, RPMI media [2]: 2 (2: 5-20 mg/L)
MIC grade, A. FUMIGATUS, RPMI media [3]: 3 (3: 1-5 mg/L)
MIC grade, C. ALBICANS, RPMI media [4]: 4 (4: <1 mg/L)
MIC grade, A. TERREUS, RPMI media [5]: 2 (2: 5-20 mg/L)
MIC grade, C. TROPICALIS, RPMI media [6]: 4 (4: <1 mg/L)
MIC grade, C. GLABRATA, RPMI media [7]: 2 (2: 5-20 mg/L)
MIC grade, A. FLAVUS, RPMI media [8]: 2 (2: 5-20 mg/L)
MIC grade, A. NIGER, RPMI media [9]: 2 (2: 5-20 mg/L)
MIC grade, C. PARAPSILOSIS, RPMI media [10]: 4 (4: <1 mg/L)
MIC grade, A. TERREUS 49, RPMI media [11]: 2 (2: 5-20 mg/L)
MIC grade, C. KRUSEI, RPMI media [12]: 4 (4: <1 mg/L)
MIC grade, A. FLAVUS, YAG media [13]: 3 (3: 0.2-1 mg/L)
MIC grade, A. NIGER, YAG media [14]: 3 (3: 0.2-1 mg/L)
MIC grade, A. TERREUS, YAG media [15]: 3 (3: 0.2-1 mg/L)
MIC grade, A. FUMIGATUS 210, YAG media [16]: 3 (3: 0.2-1 mg/L)
MIC grade, A. FUMIGATUS, YAG media [17]: 3 (3: 0.2-1 mg/L)

NC1=NN=C(CCCCOCc2cccc(Br)c2)CS1
MIC grade, A. TERREUS 49, YAG media [1]: 4 (4: <0.2 mg/L)
MIC grade, A. FUMIGATUS 210, RPMI media [2]: 2 (2: 5-20 mg/L)
MIC grade, A. FUMIGATUS, RPMI media [3]: 4 (4: <1 mg/L)
MIC grade, C. ALBICANS, RPMI media [4]: 4 (4: <1 mg/L)
MIC grade, A. TERREUS, RPMI media [5]: 3 (3: 1-5 mg/L)
MIC grade, C. TROPICALIS, RPMI media [6]: 4 (4: <1 mg/L)
MIC grade, C. GLABRATA, RPMI media [7]: 3 (3: 1-5 mg/L)
MIC grade, A. FLAVUS, RPMI media [8]: 4 (4: <1 mg/L)
MIC grade, A. NIGER, RPMI media [9]: 3 (3: 1-5 mg/L)
MIC grade, C. PARAPSILOSIS, RPMI media [10]: 4 (4: <1 mg/L)
MIC grade, A. TERREUS 49, RPMI media [11]: 3 (3: 1-5 mg/L)
MIC grade, C. KRUSEI, RPMI media [12]: 4 (4: <1 mg/L)
MIC grade, A. FLAVUS, YAG media [13]: 4 (4: <0.2 mg/L)
MIC grade, A. NIGER, YAG media [14]: 4 (4: <0.2 mg/L)
MIC grade, A. TERREUS, YAG media [15]: 4 (4: <0.2 mg/L)
MIC grade, A. FUMIGATUS 210, YAG media [16]: 4 (4: <0.2 mg/L)
MIC grade, A. FUMIGATUS, YAG media [17]: 4 (4: <0.2 mg/L)
